Measurements taken from PMC11854450 (RSC Chemical Biology, 2025).

How the values were obtained:
Assay in all cases: fluorogenic activity assay
Assay type in all cases: biochemical
[1] = target: active caspase-8 (Homo sapiens, UniProt Q14790); conditions: 1 h pre-incubation; PBS
[2] = target: T1, activeCASP-3 (Homo sapiens, UniProt P42574); conditions: 0.3 μM enzyme; 1 h pre-incubation; PBS
T1 sequence (P42574 29-175): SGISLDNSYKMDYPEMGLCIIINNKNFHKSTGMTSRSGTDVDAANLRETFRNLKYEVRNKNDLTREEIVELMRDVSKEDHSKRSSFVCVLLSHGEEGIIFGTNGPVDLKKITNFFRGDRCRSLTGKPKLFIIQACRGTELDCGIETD
T1 sequence (P42574 176-277): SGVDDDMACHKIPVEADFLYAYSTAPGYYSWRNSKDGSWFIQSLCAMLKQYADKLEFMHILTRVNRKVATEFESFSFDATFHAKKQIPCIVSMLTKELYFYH

[3] = target: T2, activeCASP10 (Homo sapiens, UniProt Q92851); conditions: 333 nM enzyme; 1 h pre-incubation; PBS with 333 mM citrate
T2 sequence (Q92851 220-415): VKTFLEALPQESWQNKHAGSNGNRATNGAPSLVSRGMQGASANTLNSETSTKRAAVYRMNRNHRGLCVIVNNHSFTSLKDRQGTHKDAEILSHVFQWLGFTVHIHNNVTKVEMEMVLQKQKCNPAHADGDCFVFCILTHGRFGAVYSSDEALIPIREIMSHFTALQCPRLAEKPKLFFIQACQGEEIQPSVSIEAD
T2 sequence (Q92851 416-521): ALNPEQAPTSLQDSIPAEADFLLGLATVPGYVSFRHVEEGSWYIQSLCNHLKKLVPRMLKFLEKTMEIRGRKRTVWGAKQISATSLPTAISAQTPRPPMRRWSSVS

Chain of active caspase-8 (Q14790 217-374): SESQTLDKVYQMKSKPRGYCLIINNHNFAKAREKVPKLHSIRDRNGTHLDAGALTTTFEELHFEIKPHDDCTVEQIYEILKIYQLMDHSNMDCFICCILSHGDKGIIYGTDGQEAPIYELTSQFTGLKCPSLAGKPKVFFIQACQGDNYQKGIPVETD
Chain of active caspase-8 (Q14790 385-479): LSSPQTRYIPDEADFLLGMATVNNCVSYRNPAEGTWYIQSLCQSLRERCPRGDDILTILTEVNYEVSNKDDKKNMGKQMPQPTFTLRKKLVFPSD

## NS(=O)(=O)C#Cc1ccccc1 [PFTμ, pifithrin-μ]
[1]
  Relative activity: PFTμ also significantly inhibited active caspase-3 and active caspase-8
[2]
  Relative activity: PFTμ also significantly inhibited active caspase-3 and active caspase-8
[3]
  Relative activity: we found that PFTμ inhibited both proteoforms to some degree
